Data reported in patent US10710986B2, “PD-1/PD-L1 inhibitors” (Gilead Sciences, Inc., priority 2018, dated 2020).

The compounds below were run against PD-1/PD-L1 (Homo sapiens (Human), UniProt Q9NZQ7) (assay: PD-1/PD-L1 biochemical protein-protein interaction assay (ALPHA)). Conditions: 0.3 nM His tagged PD-L1, 2.5 nM biotinylated Fc-PD-1, 60 minutes at 25° C., read-out: IC50 PD-L1-PD1.
Chain of PD-1/PD-L1 (Q9NZQ7 19-238): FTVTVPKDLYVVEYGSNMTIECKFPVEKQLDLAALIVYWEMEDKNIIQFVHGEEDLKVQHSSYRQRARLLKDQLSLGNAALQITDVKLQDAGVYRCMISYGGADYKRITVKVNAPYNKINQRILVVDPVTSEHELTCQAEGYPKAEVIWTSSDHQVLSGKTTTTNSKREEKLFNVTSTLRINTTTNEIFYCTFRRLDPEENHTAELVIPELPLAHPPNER

COCCNCc1ncc(-c2cccc(-c3cccc(-c4cnc(CNC[C@@H]5CCC(=O)N5)c(OC)n4)c3Cl)c2Cl)nc1OC [compound 340] and COc1nc(-c2cccc(-c3cccc(-c4cnc(CNC[C@@H]5CCC(=O)N5)c(OC)n4)c3Cl)c2Cl)cnc1CNCCOC(N)=O [compound 25] are within 1.5-fold of each other in IC50: 0.118 nM for the first, 0.08 nM for the second.

Compared with COc1nc(-c2cccc(-c3cccc(-c4cnc(CNC5CC(F)(F)C5)c(OC)n4)c3Cl)c2Cl)cnc1CNC[C@@H]1CCC(=O)N1 [compound 284], COc1nc(-c2cccc(-c3cccc(-c4cnc(CN[C@H]5C[C@H](O)C5)c(OC)n4)c3Cl)c2Cl)cnc1CNC[C@@H]1CCC(=O)N1 [compound 342] is 7.6-fold lower in IC50: 0.816 nM for the first, 0.107 nM for the second.

Compared with COc1nc(-c2cccc(-c3cccc(-c4cnc(CN5C[C@H](C)[C@@H](O)C5)c(OC)n4)c3Cl)c2Cl)cnc1CNC[C@@H]1CCC(=O)N1 [compound 487], COc1nc(-c2cccc(-c3cccc(-c4cnc(CN5CC(OC)C5)c(OC)n4)c3Cl)c2Cl)cnc1CNC[C@@H]1CCC(=O)N1 [compound 173] is 1.7-fold higher in IC50: 0.123 nM for the first, 0.209 nM for the second.

Going from COc1nc(-c2cccc(-c3cccc(-c4cnc(CNC[C@@H]5CCC(=O)N5)c(OC)n4)c3Cl)c2Cl)ccc1CN1CC(CO)C1 [compound 157] to COc1nc(-c2cccc(-c3cccc(-c4cnc(CNC[C@@H]5CCC(=O)N5)c(OC)n4)c3Cl)c2Cl)ccc1CN1CCC(CO)CC1 [compound 160], the IC50 rises from 0.064 nM to 0.128 nM (2-fold).

First: COc1nc(-c2cccc(-c3cccc(-c4cnc(CN5CCC[C@@H](F)C5)c(OC)n4)c3Cl)c2Cl)cnc1CNC[C@@H]1CCC(=O)N1 [compound 270]
Second: COc1nc(-c2cccc(-c3cccc(-c4cnc(CN5CC[C@H](C(C)(C)O)C5)c(OC)n4)c3Cl)c2Cl)cnc1CNC[C@@H]1CCC(=O)N1 [compound 502]
The IC50 of the first is 5.9-fold higher: 0.378 nM for the first, 0.064 nM for the second. The second is the more potent here.

COc1nc(-c2cccc(-c3cccc(-c4cnc(CN[C@H]5C[C@H](S(C)(=O)=O)C5)c(OC)n4)c3Cl)c2Cl)cnc1CNC[C@@H]1CCC(=O)N1 [compound 357] and COc1nc(-c2cccc(-c3cccc(-c4cnc(CN[C@@H]5CC[C@@H](O)C5)c(OC)n4)c3Cl)c2Cl)cnc1CNC[C@@H]1CCC(=O)N1 [compound 354] are within 1.5-fold of each other in IC50: 0.096 nM for the first, 0.133 nM for the second.

Compared with COc1nc(-c2cccc(-c3cccc(-c4cnc(CN(CC5CC5)C[C@@H]5CCC(=O)N5)c(OC)n4)c3Cl)c2Cl)cnc1CNC[C@@H]1CCC(=O)N1 [compound 329], COc1nc(-c2cccc(-c3cccc(-c4cnc(CNC[C@@H]5CCC(=O)N5)c(OC)n4)c3Cl)c2Cl)cnc1CNCC1CCNC(=O)C1 (some centres unmarked) [compound 659] is 7.9-fold lower in IC50: 0.955 nM for the first, 0.121 nM for the second.

First: COc1nc(-c2cccc(-c3cccc(-c4cnc(CNC[C@@H]5CCC(=O)N5)c(OC)n4)c3Cl)c2Cl)cnc1CNCC1CNC1 [compound 255]
Second: COc1nc(-c2cccc(-c3cccc(-c4cnc(CN[C@@H]5C[C@H]5CO)c(OC)n4)c3Cl)c2Cl)cnc1CNC[C@@H]1CCC(=O)N1 [compound 276]
The IC50 of the first is 3.4-fold lower: 0.08 nM for the first, 0.27 nM for the second.

First: COc1nc(-c2cccc(-c3cccc(-c4cnc(CN5CC[C@@H](C(=O)O)C5)c(OC)n4)c3Cl)c2Cl)ccc1CNC[C@@H]1CCC(=O)N1 [compound 514]
Second: COc1nc(-c2cccc(-c3cccc(-c4cnc(CNC[C@@H]5CCC(=O)N5)c(OC)n4)c3Cl)c2Cl)ccc1CN[C@@H]1COC[C@H]1O [compound 165]
The IC50 of the first is 2.1-fold lower: 0.09 nM for the first, 0.187 nM for the second.

Compared with COc1nc(-c2cccc(-c3cccc(-c4cnc(CN[C@@H]5CCOC[C@H]5O)c(OC)n4)c3Cl)c2Cl)cnc1CNC[C@@H]1CCC(=O)N1 [compound 334], CC[C@@H]1OCC[C@H]1NCc1ncc(-c2cccc(-c3cccc(-c4cnc(CNC[C@@H]5CCC(=O)N5)c(OC)n4)c3Cl)c2Cl)nc1OC [compound 226] is 1.9-fold higher in IC50: 0.246 nM for the first, 0.474 nM for the second.

First: COc1nc(-c2cccc(-c3cccc(-c4cnc(CN5C[C@@H]6CCC[C@]6(CO)C5)c(OC)n4)c3Cl)c2Cl)cnc1CNC[C@@H]1CCC(=O)N1 [compound 230]
Second: COc1nc(-c2cccc(-c3cccc(-c4cnc(CN5CC(F)(CO)C5)c(OC)n4)c3Cl)c2Cl)cnc1CNC[C@@H]1CCC(=O)N1 [compound 252]
The IC50 of the first is 5.5-fold higher: 0.331 nM for the first, 0.06 nM for the second.

COc1nc(-c2cccc(-c3cccc(-c4cnc(CNC[C@@H]5CCC(=O)N5)c(OC)n4)c3Cl)c2Cl)cnc1CNCc1ccccn1 [compound 418] and COc1nc(-c2cccc(-c3cccc(-c4cnc(CNC[C@@H]5CCC(=O)N5)c(OC)n4)c3Cl)c2Cl)cnc1CNCc1ccnn1C [compound 34] are within 1.5-fold of each other in IC50: 0.219 nM for the first, 0.231 nM for the second.

Going from COc1nc(-c2cccc(-c3cccc(-c4cnc(CNC[C@@H]5CC(C)(C)C(=O)N5)c(OC)n4)c3Cl)c2Cl)cnc1CNC[C@@H]1CCC(=O)N1 [compound 245] to COc1nc(-c2cccc(-c3cccc(-c4cnc(CNCC(C)(C)O)c(OC)n4)c3Cl)c2Cl)cnc1CNC[C@@H]1CCC(=O)N1 [compound 378], the IC50 rises from 0.15 nM to 0.396 nM (2.6-fold). The first is the more potent here.

Compared with COc1nc(-c2cccc(-c3cccc(-c4cnc(CN5CC(C)(N)C5)c(OC)n4)c3Cl)c2Cl)cnc1CNC[C@@H]1CCC(=O)N1 [compound 622], COc1nc(-c2cccc(-c3cccc(-c4cnc(CN(C)C)c(OC)n4)c3Cl)c2Cl)cnc1CNC[C@@H]1CCC(=O)N1 [compound 46] is 3.2-fold lower in IC50: 0.26 nM for the first, 0.081 nM for the second.

Going from COc1nc(-c2cccc(-c3cccc(-c4cnc(C5=NC[C@H](C)N5)c(OC)n4)c3Cl)c2Cl)cnc1CNC[C@@H]1CCC(=O)N1 [compound 646] to COc1nc(-c2cccc(-c3cccc(-c4cnc(CNC56CC(C5)C6)c(OC)n4)c3Cl)c2Cl)cnc1CNC[C@@H]1CCC(=O)N1 [compound 12], the IC50 rises from 0.064 nM to 1.49 nM (23-fold).

Going from COc1nc(-c2cccc(-c3cccc(-c4cnc(CNCCCN5CCCS5(=O)=O)c(OC)n4)c3Cl)c2Cl)cnc1CNCCCN1CCCS1(=O)=O [compound 570] to COc1nc(-c2cccc(-c3cccc(-c4cnc(CNC[C@@H]5CCC(=O)N5)c(OC)n4)c3Cl)c2Cl)cnc1CNCCN1CCCS1(=O)=O [compound 573], the IC50 falls from 0.414 nM to 0.089 nM (4.7-fold). The second is the more potent here.

Compared with COc1nc(-c2cccc(-c3cccc(-c4cnc(CNC5CCc6cn[nH]c6C5)c(OC)n4)c3Cl)c2Cl)cnc1CNC[C@@H]1CCC(=O)N1 (some centres unmarked) [compound 212], COc1nc(-c2cccc(-c3cccc(-c4cnc(CN[C@H](C)CO)c(OC)n4)c3Cl)c2Cl)cnc1CNC[C@@H]1CCC(=O)N1 [compound 347] is 2-fold lower in IC50: 0.48 nM for the first, 0.245 nM for the second.

CSc1nc(-c2cccc(-c3cccc(-c4cnc(CN5CC(O)C5)c(SC)n4)c3Cl)c2Cl)cnc1CN1CC(O)C1 [compound 88] and COc1nc(-c2cccc(-c3cccc(-c4cnc(CN5C[C@@H](O)[C@@H](O)C5)c(OC)n4)c3Cl)c2Cl)cnc1CN1C[C@@H](O)[C@@H](O)C1 [compound 519] are within 1.5-fold of each other in IC50: 0.217 nM for the first, 0.277 nM for the second.

Going from CNc1nc(-c2cccc(-c3cccc(-c4cnc(CN5CC6(C5)CN(C(C)=O)C6)c(NC)n4)c3Cl)c2Cl)cnc1CN1CC2(C1)CN(C(C)=O)C2 [compound 76] to COc1nc(-c2cccc(-c3cccc(-c4cnc(CNC5CC6(C5)CN(C(C)=O)C6)c(OC)n4)c3Cl)c2Cl)cnc1CNC1CC2(C1)CN(C(C)=O)C2 (centres unmarked) [compound 190], the IC50 rises from 0.09 nM to 0.2 nM (2.2-fold). The first is the more potent here.

Compared with CNc1nc(-c2cccc(-c3cccc(-c4cnc(CN5CC(OC)C5)c(NC)n4)c3Cl)c2Cl)cnc1CN1CC(OC)C1 [compound 75], COc1nc(-c2cccc(-c3cccc(-c4cnc(CN5CCC(C(=O)N(C)C)C5)c(OC)n4)c3Cl)c2Cl)cnc1CN1CCC(C(=O)N(C)C)C1 (centres unmarked) [compound 531] is 3.9-fold lower in IC50: 0.877 nM for the first, 0.225 nM for the second.

CCNC(=O)CNCc1ncc(-c2cccc(-c3cccc(-c4cnc(CNC[C@@H]5CCC(=O)N5)c(OC)n4)c3Cl)c2Cl)nc1OC [compound 578] and COc1nc(-c2cccc(-c3cccc(-c4cnc(CNC[C@@H]5CCC(=O)N5)c(OC)n4)c3Cl)c2Cl)cnc1CNCCNC(C)=O [compound 373] are within 1.5-fold of each other in IC50: 0.182 nM for the first, 0.13 nM for the second.

First: COc1nc(-c2cccc(-c3cccc(-c4cnc(C5=NCC(O)CN5)c(OC)n4)c3Cl)c2Cl)cnc1C1=NCC(O)CN1 (centres unmarked) [compound 128]
Second: COc1nc(-c2cccc(-c3cccc(-c4cnc(C5=NC[C@H](C)N5)c(OC)n4)c3Cl)c2Cl)cnc1C1=NC[C@H](C)N1 [compound 121]
The IC50 of the first is 8.7-fold higher: 0.557 nM for the first, 0.064 nM for the second. The second is the more potent here.

First: COc1nc(-c2cccc(-c3cccc(-c4cnc(CN(C)C[C@@H]5CCC(=O)N5)c(OC)n4)c3Cl)c2Cl)cnc1CN(C)CCO [compound 322]
Second: COc1nc(-c2cccc(-c3cccc(-c4cnc(CNCC5(S(C)(=O)=O)CC5)c(OC)n4)c3Cl)c2Cl)cnc1CNC[C@@H]1CCC(=O)N1 [compound 218]
The IC50 of the first is 1.6-fold higher: 0.23 nM for the first, 0.14 nM for the second. The second is the more potent here.

Going from COc1nc(-c2cccc(-c3cccc(-c4cnc(CN[C@H](C5CC5)[C@@H]5CCC(=O)N5)c(OC)n4)c3Cl)c2Cl)cnc1CN[C@H](C1CC1)[C@@H]1CCC(=O)N1 [compound 590] to COc1nc(-c2cccc(-c3cccc(-c4cnc(CNCC5(O)CCS(=O)(=O)C5)c(OC)n4)c3Cl)c2Cl)cnc1CNC[C@@H]1CCC(=O)N1 (some centres unmarked) [compound 286], the IC50 falls from 0.131 nM to 0.06 nM (2.2-fold). The second is the more potent here.

COc1nc(-c2cccc(-c3cccc(-c4cnc(CNC[C@H]5CCC(=O)N5)c(OC)n4)c3Cl)c2Cl)cnc1CNCCc1ncc[nH]1 [compound 201] and COc1nc(-c2cccc(-c3cccc(-c4cnc(CN5C[C@@H](F)C[C@H]5CO)c(OC)n4)c3Cl)c2Cl)cnc1CNC[C@@H]1CCC(=O)N1 [compound 40] are within 1.5-fold of each other in IC50: 0.28 nM for the first, 0.238 nM for the second.

Going from COc1nc(-c2cccc(-c3cccc(-c4cnc(CN5CCC(O)(CC#N)C5)c(OC)n4)c3Cl)c2Cl)cnc1CNC[C@@H]1CCC(=O)N1 (some centres unmarked) [compound 407] to COCC1(CO)CCN(Cc2ncc(-c3cccc(-c4cccc(-c5cnc(CNC[C@@H]6CCC(=O)N6)c(OC)n5)c4Cl)c3Cl)nc2OC)C1 (some centres unmarked) [compound 463], the IC50 falls from 0.186 nM to 0.076 nM (2.4-fold). The second is the more potent here.

COc1nc(-c2cccc(-c3cccc(-c4ccc5c(CN6CC7(CCC(=O)N7)C6)cn(C)c5n4)c3Cl)c2Cl)cnc1CN1CC2(CCC(=O)N2)C1 [compound 494] and COc1nc(-c2cccc(-c3cccc(-c4cnc(CN5CC6(CCC(=O)N6)C5)c(OC)n4)c3Cl)c2F)ccc1CN1CC2(CCC(=O)N2)C1 [compound 649] are within 1.5-fold of each other in IC50: 0.139 nM for the first, 0.128 nM for the second.

COCC1(CO)CCN(Cc2ncc(-c3cccc(-c4cccc(-c5cnc(CN6CCC(CO)(COC)C6)c(OC)n5)c4Cl)c3Cl)nc2OC)C1 (centres unmarked) [compound 460] and COc1nc(-c2cccc(-c3cccc(-c4cnc(CN5C6COCC5C6)c(OC)n4)c3Cl)c2Cl)cnc1CN1C2COCC1C2 [compound 474] are within 1.5-fold of each other in IC50: 0.157 nM for the first, 0.219 nM for the second.
